Source: article PMC11576293, “New series of 4,6-diaryl pyrimidines: facile synthesis and antiproliferative activity as dual EGFR/VEGFR-2 inhibitors” (Frontiers in Chemistry, 2024)

Assays:
SN12C = assay: NCI-60 single-dose screen; format: cell-based; details: Homo sapiens, single dose 10 µM, '-' = no inhibition, read-out: % Growth Inhibition
Outline: (§1)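 NCI DTP single-dose screen; 10 μM compound; 60-line panel, nine cancer types.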

NCI-H23 = assay: NCI-60 single-dose screen; format: cell-based; details: Homo sapiens, single dose 10 µM, '-' = no inhibition, read-out: % Growth Inhibition
Outline: as §1

UACC-257 = assay: NCI-60 single-dose screen; format: cell-based; details: Homo sapiens, single dose 10 µM, '-' = no inhibition, read-out: % Growth Inhibition
Outline: as §1

UACC-62 = assay: NCI-60 single-dose screen; format: cell-based; details: Homo sapiens, single dose 10 µM, '-' = no inhibition, read-out: % Growth Inhibition
Outline: as §1

MDA-MB-435 = assay: NCI-60 single-dose screen; format: cell-based; details: Homo sapiens, single dose 10 µM, '-' = no inhibition, read-out: % Growth Inhibition
Outline: as §1

ACHN 1 = assay: NCI-60 single-dose screen; format: cell-based; details: Homo sapiens, single dose 10 µM, '-' = no inhibition, read-out: % Growth Inhibition
Outline: as §1

MDA-MB-468 = assay: NCI-60 single-dose screen; format: cell-based; details: Homo sapiens, single dose 10 µM, '-' = no inhibition, read-out: % Growth Inhibition
Outline: as §1

PC-3 = assay: NCI-60 single-dose screen; format: cell-based; details: Homo sapiens, single dose 10 µM, '-' = no inhibition, read-out: % Growth Inhibition
Outline: as §1

RXF 393 = assay: NCI-60 single-dose screen; format: cell-based; details: Homo sapiens, single dose 10 µM, '-' = no inhibition, read-out: % Growth Inhibition
Outline: as §1

MOLT-4 = assay: NCI-60 single-dose screen; format: cell-based; details: Homo sapiens, single dose 10 µM, '-' = no inhibition, read-out: % Growth Inhibition
Outline: as §1

SF-539 = assay: NCI-60 single-dose screen; format: cell-based; details: Homo sapiens, single dose 10 µM, '-' = no inhibition, read-out: % Growth Inhibition
Outline: as §1

RPMI-8226 = assay: NCI-60 single-dose screen; format: cell-based; details: Homo sapiens, single dose 10 µM, '-' = no inhibition, read-out: % Growth Inhibition
Outline: as §1

OVCAR-8 = assay: NCI-60 single-dose screen; format: cell-based; details: Homo sapiens, single dose 10 µM, '-' = no inhibition, read-out: % Growth Inhibition
Outline: as §1

KM12 = assay: NCI-60 single-dose screen; format: cell-based; details: Homo sapiens, single dose 10 µM, '-' = no inhibition, read-out: % Growth Inhibition
Outline: as §1

HT29 = assay: NCI-60 single-dose screen; format: cell-based; details: Homo sapiens, HT-29, single dose 10 µM, '-' = no inhibition, read-out: % Growth Inhibition
Outline: as §1

SW-620 = assay: NCI-60 single-dose screen; format: cell-based; details: Homo sapiens, single dose 10 µM, '-' = no inhibition, read-out: % Growth Inhibition
Outline: as §1

BT-549 = assay: NCI-60 single-dose screen; format: cell-based; details: Homo sapiens, single dose 10 µM, '-' = no inhibition, read-out: % Growth Inhibition
Outline: as §1

SNB-19 = assay: NCI-60 single-dose screen; format: cell-based; details: Homo sapiens, single dose 10 µM, '-' = no inhibition, read-out: % Growth Inhibition
Outline: as §1

DU-145 = assay: NCI-60 single-dose screen; format: cell-based; details: Homo sapiens, single dose 10 µM, '-' = no inhibition, read-out: % Growth Inhibition
Outline: as §1

NCI-H460 = assay: NCI-60 single-dose screen; format: cell-based; details: Homo sapiens, single dose 10 µM, '-' = no inhibition, read-out: % Growth Inhibition
Outline: as §1

NCI-H322M = assay: NCI-60 single-dose screen; format: cell-based; details: Homo sapiens, single dose 10 µM, '-' = no inhibition, read-out: % Growth Inhibition
Outline: as §1

NCI/ADR-RES = assay: NCI-60 single-dose screen; format: cell-based; details: Homo sapiens, single dose 10 µM, '-' = no inhibition, read-out: % Growth Inhibition
Outline: as §1

CCRF-CEM = assay: NCI-60 single-dose screen; format: cell-based; details: Homo sapiens, single dose 10 µM, '-' = no inhibition, read-out: % Growth Inhibition
Outline: as §1

SK-MEL-28 = assay: NCI-60 single-dose screen; format: cell-based; details: Homo sapiens, single dose 10 µM, '-' = no inhibition, read-out: % Growth Inhibition
Outline: as §1

OVCAR-3 = assay: NCI-60 single-dose screen; format: cell-based; details: Homo sapiens, single dose 10 µM, '-' = no inhibition, read-out: % Growth Inhibition
Outline: as §1

MCF7 = assay: NCI-60 single-dose screen; format: cell-based; details: Homo sapiens, single dose 10 µM, '-' = no inhibition, read-out: % Growth Inhibition
Outline: as §1

TK-10 = assay: NCI-60 single-dose screen; format: cell-based; details: Homo sapiens, single dose 10 µM, '-' = no inhibition, read-out: % Growth Inhibition
Outline: as §1

M14 = assay: NCI-60 single-dose screen; format: cell-based; details: Homo sapiens, single dose 10 µM, '-' = no inhibition, read-out: % Growth Inhibition
Outline: as §1

HCT-15 = assay: NCI-60 single-dose screen; format: cell-based; details: Homo sapiens, single dose 10 µM, '-' = no inhibition, read-out: % Growth Inhibition
Outline: as §1

SF-295 = assay: NCI-60 single-dose screen; format: cell-based; details: Homo sapiens, single dose 10 µM, '-' = no inhibition, read-out: % Growth Inhibition
Outline: as §1

SR = assay: NCI-60 single-dose screen; format: cell-based; details: Homo sapiens, single dose 10 µM, '-' = no inhibition, read-out: % Growth Inhibition
Outline: as §1

EKVX = assay: NCI-60 single-dose screen; format: cell-based; details: Homo sapiens, single dose 10 µM, '-' = no inhibition, read-out: % Growth Inhibition
Outline: as §1

IGROV1 = assay: NCI-60 single-dose screen; format: cell-based; details: Homo sapiens, IGROV-1, single dose 10 µM, '-' = no inhibition, read-out: % Growth Inhibition
Outline: as §1

HCC-2998 = assay: NCI-60 single-dose screen; format: cell-based; details: Homo sapiens, single dose 10 µM, '-' = no inhibition, read-out: % Growth Inhibition
Outline: as §1

MALME-3M = assay: NCI-60 single-dose screen; format: cell-based; details: Homo sapiens, single dose 10 µM, '-' = no inhibition, read-out: % Growth Inhibition
Outline: as §1

NCI-H522 = assay: NCI-60 single-dose screen; format: cell-based; details: Homo sapiens, single dose 10 µM, '-' = no inhibition, read-out: % Growth Inhibition
Outline: as §1

MDA-MB231/ATCC = assay: NCI-60 single-dose screen; format: cell-based; details: Homo sapiens, MDA-MB-231, single dose 10 µM, '-' = no inhibition, read-out: % Growth Inhibition
Outline: as §1

CAKI-1 = assay: NCI-60 single-dose screen; format: cell-based; details: Homo sapiens, single dose 10 µM, '-' = no inhibition, read-out: % Growth Inhibition
Outline: as §1

UO-31 = assay: NCI-60 single-dose screen; format: cell-based; details: Homo sapiens, single dose 10 µM, '-' = no inhibition, read-out: % Growth Inhibition
Outline: as §1

SNB-75 = assay: NCI-60 single-dose screen; format: cell-based; details: Homo sapiens, single dose 10 µM, '-' = no inhibition, read-out: % Growth Inhibition
Outline: as §1

K-562 = assay: NCI-60 single-dose screen; format: cell-based; details: Homo sapiens, K562, single dose 10 µM, '-' = no inhibition, read-out: % Growth Inhibition
Outline: as §1

SK-MEL-2 = assay: NCI-60 single-dose screen; format: cell-based; details: Homo sapiens, single dose 10 µM, '-' = no inhibition, read-out: % Growth Inhibition
Outline: as §1

SF-268 = assay: NCI-60 single-dose screen; format: cell-based; details: Homo sapiens, single dose 10 µM, '-' = no inhibition, read-out: % Growth Inhibition
Outline: as §1

A498 = assay: NCI-60 single-dose screen; format: cell-based; details: Homo sapiens, single dose 10 µM, '-' = no inhibition, read-out: % Growth Inhibition
Outline: as §1

SK-OV-3 = assay: NCI-60 single-dose screen; format: cell-based; details: Homo sapiens, single dose 10 µM, '-' = no inhibition, read-out: % Growth Inhibition
Outline: as §1

LOX IMVI = assay: NCI-60 single-dose screen; format: cell-based; details: Homo sapiens, single dose 10 µM, '-' = no inhibition, read-out: % Growth Inhibition
Outline: as §1

HL-60(TB) = assay: NCI-60 single-dose screen; format: cell-based; details: Homo sapiens, single dose 10 µM, '-' = no inhibition, read-out: % Growth Inhibition

Compound: COc1ccc(CSc2nc(-c3ccc(Cl)cc3)cc(-c3ccc(OC)cc3)n2)cc1 [Compound 15, 2-(4-Methoxybenzylthio)-4-(4-chlorophenyl)-6-(4-methoxyphenyl)pyrimidine]
- inhibition at 10 µM (SN12C): 11.3%
- inhibition at 10 µM (NCI-H23): 4.6%
- inhibition at 10 µM (UACC-257): < 0%
- inhibition at 10 µM (UACC-62): < 0%
- inhibition at 10 µM (MDA-MB-435): 2.38%
- inhibition at 10 µM (ACHN 1): 15.8%
- inhibition at 10 µM (MDA-MB-468): < 0%
- inhibition at 10 µM (PC-3): 17.5%
- inhibition at 10 µM (RXF 393): < 0%
- inhibition at 10 µM (MOLT-4): 3.03%
- inhibition at 10 µM (SF-539): < 0%
- inhibition at 10 µM (RPMI-8226): < 0%
- inhibition at 10 µM (OVCAR-8): 1.69%
- inhibition at 10 µM (KM12): < 0%
- inhibition at 10 µM (HT29): 4.35%
- inhibition at 10 µM (SW-620): < 0%
- inhibition at 10 µM (BT-549): < 0%
- inhibition at 10 µM (SNB-19): < 0%
- inhibition at 10 µM (DU-145): 0.47%
- inhibition at 10 µM (NCI-H460): < 0%
- inhibition at 10 µM (NCI-H322M): < 0%
- inhibition at 10 µM (NCI/ADR-RES): < 0%
- inhibition at 10 µM (CCRF-CEM): < 0%
- inhibition at 10 µM (SK-MEL-28): < 0%
- inhibition at 10 µM (OVCAR-3): 5.05%
- inhibition at 10 µM (MCF7): < 0%
- inhibition at 10 µM (TK-10): < 0%
- inhibition at 10 µM (M14): < 0%
- inhibition at 10 µM (HCT-15): 0.53%
- inhibition at 10 µM (SF-295): < 0%
- inhibition at 10 µM (SR): 8.9%
- inhibition at 10 µM (EKVX): < 0%
- inhibition at 10 µM (IGROV1): < 0%
- inhibition at 10 µM (HCC-2998): < 0%
- inhibition at 10 µM (MALME-3M): < 0%
- inhibition at 10 µM (NCI-H522): < 0%
- inhibition at 10 µM (MDA-MB231/ATCC): < 0%
- inhibition at 10 µM (CAKI-1): < 0%
- inhibition at 10 µM (UO-31): < 0%
- inhibition at 10 µM (SNB-75): < 0%
- inhibition at 10 µM (K-562): 12.8%
- inhibition at 10 µM (SK-MEL-2): < 0%
- inhibition at 10 µM (SF-268): < 0%
- inhibition at 10 µM (A498): < 0%
- inhibition at 10 µM (SK-OV-3): < 0%
- inhibition at 10 µM (LOX IMVI): < 0%
- inhibition at 10 µM (HL-60(TB)): 3.01%
- melting point: 278 to 280 °C
